Test results from patent EP0719267B1, “SECOND MESSENGER CELL SIGNALING INHIBITORS” (CELL THERAPEUTICS, INC., priority 1993, dated 1994).

How the values were obtained:
[1] = test system: THP-1 cell adhesion to IL-1-activated HUVEC; experiment: THP-1 cell adhesion to activated HUVEC; assay type: cell-based, human
Procedure: This example illustrates inhibitive activity of compounds nos. 50 and 57 on THP-1 cell adhesion to IL-1-activated HUVEC. In an investigative assay, HUVEC were stimulated with IL-1 (10 ng/ml), both in the absence and presence of varying concentrations of drugs for 8 hours in a 96-well microtiter plate. In the wellplate, human monocytic leukemia cell line THP-1 cells were added at 50,000 cells per well. The THP-1 cells were pre-incubated with BCECF, a fluorescence dye that can be used to measure cell number using a fluorescence plate reader. After 10 minutes at 37 °C, the microtiter plate was inverted and spun at 900 rpm. The remaining adhering THP-1 cells were then analyzed.
Inventive compound no. […] HUVEC were stimulated with 20 ng/ml IL-1β or 15 ng/ml TNFα for 6 hours. Fluorescence labeled (BCECF-AM) THP-1 cells were allowed to adhere to the HUVEC for 20 minutes, washed once and the amount of fluorescence remaining analyzed on a fluorescence plate reader. The results, reported in figures 62A and 62B (TNFα or IL-1β, respectively), show inhibition of THP-1 adhesion to HUVEC.
Figures 72A and 72B illustrate that inventive compound no. 58 inhibited THP-1 cell adhesion to either TNF or IL-1-stimulated HUVEC, respectively. Procedurally, HUVEC were stimulated with TNF or IL-1 for 8 hours and THP-1 cells added for 20 minutes. The HUVEC were then washed and analyzed for adherence. Inventive compound no. 58 inhibited adhesion of THP-1 cells to HUVEC with an IC50 of approximately 1 µM for both TNF and IL-1.

Balb/3T3 cells = experiment: PDGF-induced proliferation of Balb/3T3 cells; assay type: cell-based, murine
Procedure: Balb/3T3 cells respond vigorously to PDGF stimulation, and are useful in vitro models for further study of PDGF-induced proliferation. Disregulated PDGF-proliferative response has been linked to a variety of diseases, including, e.g., restenosis, atherosclerosis, fibrosis, and tumor cell angiogenesis. Cells were plated in low serum-containing medium for 24 hours prior to stimulation with various concentrations of inventive compound no. 45. PDGF-BB was added at constant 10 µM concentrations. Tritiated thymidine was added and cells harvested for scintillation counting 24 hours later. Figure 15 illustrates a dose response curve from this assay, including an IC50 value of approximately 0.08 µM, exemplifying inhibitory activity of the tested compound.
In another investigation similar to the Balb/3T3 proliferation assay of Example 32, IC50 and ID50 values for inventive compounds nos. 70, 45, 59 and 58 were determined. LD50 values were determined using a cytotoxicity assay, as in Example 32. In these assays, Balb/3T3 cells, stimulated with PDGF and treated with one of the above inventive compounds in a manner identical to the tritiated thymidine procedure above, were incubated instead with a viable dye BCECF, a fluorescent dye. Fluorescence was measured using a fluorescent plate reader. […] Figure 17 illustrates assay results by comparing […] value against LD50 values for the inventive compounds tested. Most compounds tested were non-cytotoxic yet were significant inhibitors of proliferation.
Inventive compounds nos. 77,7 and 78 were added at various concentrations one hour prior to PDGF stimulation. PDGF-BB was added at a constant 10 µM concentrations along with tritiated thymidine. The cells were allowed to incubate for one day, following addition of PDGF and tritiated thymidine. 24 Hours later, the cells were harvested and counted by liquid scintillation counting. Results for compounds nos.77, 7 and 78 are shown in figures 26A, 26B and 26C, respectively. Background counts were approximately 1% of control levels.
Results obtained for compound no. 50 in the PDGF-induced proliferation of Balb/3T3 cells (Example 32), reported in figure 28, illustrate the inhibitive properties of this compound on proliferation induced by PDGF, representing significant inhibition at concentrations as low as 2 µM. […] 50, are capable of reducing tumor cell growth by blocking oncogene-induced events.
Figure 66 reports that inventive compound no. 45 inhibited PDGF-induced murine BALB/3T3 proliferation. Procedurally, cells were rested overnight in 0.2% serum and stimulated with 25 ng/ml PDGF. Compound no. 45 was added 1 hour prior to stimulation. Cells were pulsed with ^3H-TdR 24 hours later and harvested for scintillation counting 4 hours later.
Figures 66A and 66B are a dose response and cytoxicity curves, respectively, for inhibition of proliferation in Balb/3T3 cells by inventive compound no. 58. In the assay protocol, cells were starved overnight in 0.5% serum containing medium, followed by stimulation with 20 ng/ml PDGF for 24 hours. The cells were labeled with ^3H-TdR for 4 hours and harvested and counted by scintillation. Figure 66B illustrates that inventive compound no.
Figure 68 illustrates an effect of the delayed addition of inventive compound no. 58 to Balb/3T3 proliferation in response to PDGF-BB. Cells were stimulated with PDGF (20 ng/ml) and inventive compound no. 58 added either simultaneous with PDGF (0) or at various times after addition of PDGF, up to 6 hours later. At 24 hours, the cells were pulsed with ^3H-TdR and counted by scintillation four hours later. […] 58 was added as late as 20 hours after PDGF.
Figure 69 illustrates that inventive compound no. […] In the assay protocol, cells were serum starved for 24 hours before adding either 20 ng/ml PDGF or 10% serum. The cells were pulsed with ^3HTdR 24 hours later. Inventive compound no.

[2] = test system: murine cytotoxic T-cell line, CT6; experiment: Cytokine-induced proliferation of the cytotoxic T-cell line CT6 / CT-6.1; assay type: cell-based; settings: for inhibition of direct IL-2-induced proliferation: added one hour prior to IL-2, thymidine at 48 hours; for IC50: Mus musculus, T-cell, CT-6.1 cells
Procedure: Another assay in this example was used to determine inhibitive activity of the inventive compounds on direct IL-2-induced proliferation in a murine cytotoxic T-cell line, CT6. The CT6 cell line is an IL-2-dependent cell line. IL-2 was removed from the medium for 24 hours prior to stimulation. […] 49, 50, 45, 43 or 41 were added at various concentrations. The cells were stimulated with IL-2 and amount of tritiated thymidine dye incorporated was measured 48 hours later.
In another related assay, inhibitory effects on CT6 cell proliferation is examined. CT6 cells are a murine IL-2 dependent, cytotoxic T cell line that proliferate in response to murine IL-2 (15 U/ml).
CT-6.1 cells were starved overnight and stimulated with IL-2 (20 ng/ml). Twenty hours later, cells were labeled for 4 hours with ^3H-TdR and counted by liquid scintillation.
CT6.1 cells were cultured with IL-2 with or without the addition of inventive compound no. 45 (2 µM) and viable cells counted for up to 8 days. On day 4, two cultures previously incubated with compound no. 45, were washed and recultured with fresh IL-2 with or without compound no. 45 (2 µM).
Procedurally, CT-6.1 cells were starved overnight and stimulated with either IL-2 (20 ng/ml), IL-4 (50 ng/ml) or IL-7 (25 ng/ml). ^3H-TdR was added at 20 hours, cells were harvested 4 hours later, and the incorporation of ^3H-TdR was determined.

Structure (SMILES)	inhibition of THP-1 adhesion ([1]; IL-1 (10 ng/ml), 8 hours)	minimal effective concentration (Balb/3T3 cells; Mus musculus, BALB/3T3, fig. 28, read-out: concentrations giving significant inhibition)	inhibition of direct IL-2-induced proliferation [2]	inhibition of THP-1 adhesion ([1]; 20 ng/ml IL-1β or 15 ng/ml TNFα, 6 hours)	IC50 (Balb/3T3 cells; Mus musculus, BALB/3T3, PDGF-BB, low serum 24 hours)	proliferation measured by cell number ([2]; CT6.1 cells, IL-2, 2 µM, up to 8 days)	reversibility of the effect ([2]; CT6.1 cells, washed on day 4)	IC50 ([2]; IL-2 (20 ng/ml), fig. 46)	IC50 ([2]; IL-2 (20 ng/ml), fig. 48)	IC50 ([2]; IL-4 (50 ng/ml))	IC50 ([2]; IL-7 (25 ng/ml))	IC50 ([1]; Homo sapiens, TNF-stimulated HUVEC, 8 hours)	PDGF-induced versus serum-induced proliferation (Balb/3T3 cells; 20 ng/ml PDGF or 10% serum)	effect on serum-induced proliferation (Balb/3T3 cells; 10% serum)	IC50 (Balb/3T3 cells; Mus musculus, BALB/3T3, 20 ng/ml PDGF, 24 hours)	inhibition with delayed addition (Balb/3T3 cells; added as late as 20 hours after PDGF)
CCCCCCCCCCCCNCC(O)CCCCCCCCCn1c(=O)c2c(ncn2C)n(C)c1=O (centres unmarked) [compound no. 50, 1-(11-Dodecylamino-10-hydroxyundecyl)-3,7-dmethylxanthine]	significantly inhibited THP-1 adhesion, even at low concentratations	≥ 2 µM	inhibited direct IL-2-induced CT6 proliferation													
CCCCCCCCNCC(O)CCCCCCCCCn1c(=O)c2c(ncn2C)n(C)c1=O (centres unmarked) [compound no. 45]			inhibited direct IL-2-induced CT6 proliferation	inhibited adhesion of monocytic leukemia cells (THP-1) to IL-1β or TNFα-activated HUVEC	~0.08 µM	inhibits proliferation as measured by cell number	reversible even after 4 days in culture	~0.8 µM	< 1 µM	< 1 µM	< 1 µM					
COc1cc(CNCC(O)CCCCCCCCCn2c(=O)c3c(ncn3C)n(C)c2=O)cc(OC)c1OC (centres unmarked) [compound no. 58, 1-[11-(3,4,5-Trimethoxybenzylamino)-10-hydroxyundecyl]-3,7-dimethylxanthine]												~1 µM	inhibited PDGF- induced proliferation in Balb/3T3 cells to a greater extent than serum-induced proliferation	did not have a significant effect on serum-induced Balb/3T3 proliferation	0.2 to 0.5 µM	nearly complete inhibition in proliferation
